Holding throughout (format): in vivo, rat
One assay relates to IL-1β. Nature of the assay: IL-1β in hind paw skin after intraplantar ET (ELISA). How it is done:
These experiments required tissue sampling. The animals were sacrificed by anesthesia (sodium penthiobarbital, 50 mg/kg) and the skin of the hind paws is sampled either at 1 h (for the determination of the TNFα) or at 4 h (for the determination of IL-1β, IL-6 and NGF) after the endotoxin injection.
These tissue samples are weighed and then quick frozen and stored at −70° C. with a view of proceeding with the evaluation of IL-1β, TNFα, IL-6 and NGF.
In another series of experiments, the tissues are taken as described above using different groups of rats; the one group being pretreated with TAP 30 minutes before injection of ET and the other group having been injected with TAP only.
The tissues are homogenized in a phosphate buffer solution (PBS, pH=7.4), containing 0.4 M of NaCl, 0.05% of Tween-20®, 0.5% bovine serum albumin (BSA), 0.1 mM of phenylmethylsulfonyl fluoride, 0.1 mM of benzethonium chloride, 10 mM of EDTA and 20 KI/mL of aprotinin.
The mixture is then centrifuged at 1,200 g for 60 minutes at 4° C. The cytokines and the NFG contained in the supernatant were measured using ELIZA assays. […]
(In an ELISA, binding on a coated surface is turned into a signal by an enzyme label.)

Assay [1] deals with rats. Nature of the assay: Daily treatment with TAP in neuropathic rats (model not stated, FIG. 11). The settings on record: TAP 1 μg in 100 μL daily over 5 consecutive days.
Assay [2] has as its system rats. Briefly: Fever (rectal temperature) induced by intraperitoneal ET. The settings on record: TAP 25 μg i.p. before ET 50 μg i.p.; rectal temperature 1, 3, 6 h; FIG. 4C. How it is done: Protocol 2(b): Different groups of rats (n=5 in each group) were treated in the following fashion • either they received one intraperitoneal injection of 50 μg of ET, • or they were pretreated with the TAP peptide (25 μg, intraperitoneal injection), 30 minutes before an injection of endotoxin.
Rectal temperature was measured at 1 hour, 3 hours and 6 hours.
A control group received an intraperitoneal injection of TAP peptide (25 μg dissolved in 100 μl of saline solution).

Assay [3] has as its system rats. Nature of the assay: CCI (chronic constriction injury) mononeuropathy: allodynia and hyperpathy. How it is done: Adult male Sprague-Dawley rats (250-300 g) were used for these trials. Over the period of the experiments, the rats were placed under standard conditions (4 to 5 individuals to a cage, 12 hour day/night cycle, 22.2° C.), with free access to water and food. The necessary surgical procedures were done under deep anesthesia using ketamine (Ketalar®, 40-50 mg/kg, intraperitoneal injection), preceded by pre-anesthesia using chlorpromazine (8 mg/kg, idem) and atropine (0.05 mg/kg, idem).
Mononeuropathy was induced in different groups of rats (n=6 rats in each group) according to the CCI (chronic constriction injury, chronic nerve constriction, Bennet G. J. et Xie Y. K., 1988, A peripheral mononeuropathy in rat that produces disorders of pain sensation like those seen in man, Pain, 33:87-107) or according to the SNI (spared nerve injury, spared nerve of the enervated paw, Decosterd I. et Woolf C. J., 2000, Spared nerve injury: an animal model of persistent peripheral neuropathic pain, Pain, 87:149-158). The sciatic nerve was exposed after dissection of the posterior hip and by incision through the skin and the fatty layer covering the popliteal fossa. For the CCI model, four loose ligatures (chromed catgut 4.0) were placed on the proximal side of the sciatic trifurcation. For the SNI model, the external popliteal sciatic nerve and the internal popliteal sciatic nerve were isolated, tightly ligatured and sectioned, while the sural nerve innervating the lateral aspect of the paw was left intact.
The rats were placed in individual compartments of one cage, whose floor was made of a metal grating allowing access to the heel pad and to the lateral aspect of the paw with wires.
For mechanical allodynia, the plantar surface of the hind paws (lateral surface for the SNI model and the median plantar surface for the CCI) was contacted with the von Frey wires (VFF 4.31 and 5.07, Stoelting Co., USA), which corresponded to the forces of 2.041 and 11.749 g (18.5 and 106.7 mN), respectively. […] The number of paw retractions induced by 10 trials was established for each rat on each hind paw prior to (baseline) and after induction of the mono-neuropathy. In normal rats, the low caliber wires (VFF 4.31) and higher caliber (VFF 5.07) induced an average 1.3±0.2 and 2.7±0.3 responses/10 trials, respectively.
The method described by Choi et al. (1994, Behavioral signs of ongoing pain and cold allodynia in a rat model of neuropathic pain, Pain, 59:369-376) was used for evaluation of cold allodynia. It consists of applying several drops (approximately 50 μl) of an acetone solution on the paw and measuring the duration of the retraction reaction. One half second and 20 seconds are the values chosen arbitrarily for the minimum and maximum threshold, respectively.
The duration (D) of retraction of the paw (RP) in response to a nociceptive ray of radiant heat oriented towards the plantar surface was established in the normal rat. […] the DRP after induction of the mononeuropathy was considered to be an indication of hyperalgesia. Each rat underwent two RP tests per session a minimum of every five minutes.
The neuropathic manifestations were at maximum seven to ten days after induction of the neuropathy. The effects of the injections of TAP were tested during this period, which corresponds to the peak of the neuropathy.
During the experiments done on rats suffering from neuropathy, allodynia and hyperpathy were evaluated in each group of animals with reference to the baseline condition established prior to induction of mononeuropathy. For example, the average of the number of paw withdrawal induced by each VFF was calculated for all of the rats of each group and the variation of this mean has been determined after treatment with TAP at different time periods after the injection. The same method has been followed for allodynia in the code and the hypertrophy relative to heat.

In assay [4] the test system is rats. Nature of the assay: Systemic inflammatory hyperalgesia induced by intraperitoneal ET; PP and TF tests. The settings on record: TAP 25 μg i.p. thirty minutes before ET 50 μg i.p. How it is done:
In the second model, the rats receive an intraperitoneal injection of endotoxin ([…] in 100 μl of physiological saline solution).
Protocol 2(a): One group of rats received one intraperitoneal injection of ET (50 μg), while the other group was pretreated with the protein analogue of thymuline (TAP) (25 μg, intraperitoneal injection), 30 minutes before the injection of ET.
The TF and PP tests were then done at 1 hour, 3 hours and 6 hours after the injection of ET.

For “Glu-Ala-lys-Ser-Gln-Gly-Gly-Ser-Asp (SQGGSD; N-terminal Glu-Ala-Lys; printed: Ser-Gln-Gly-Gly-Ser-Asp) [TAP]”, the “change of IL-1β concentration, TAP alone” value in the assay on IL-1β (TAP 25 μg in control animals, no ET) was “did not induce significant change”. In addition, in the assay with IL-1β (TAP pretreatment before intraplantar ET, ET alone 2850.6±255.4, saline 400.0±45.0, P<0.01), the IL-1β concentration turned out to be 1686.0±266.0 pg/paw. Also, in the assay with rats [1] (FIG. 11), the “effect of daily treatment on allodynia” value was “progressive reduction of the manifestations of the allodynia” and the “effect of daily treatment on the effects of each injection” value is listed as “potentiation of the effects of each injection”. Besides, the “effect of daily treatment on cold allodynia” value in the assay with rats [1] (compared with single injection) is reported as “increased inhibition of the cold allodynia”. The “effect on ET-induced increase of body temperature” value in the assay on rats [2] was “nullified the process of increase of body temperature”. Also, in the assay with rats [3] (CCI, TAP 5 μg i.p.), the “reversibility of the effects, time after injection” value was “three to four hours”; the “time of maximum effect on cold allodynia after injection” value was 75 min; the “time of maximum effect on hyperpathy after injection” value is 75 min; the “time of maximum effect on mechanical allodynia after injection” value is given as “two hours”. Moreover, in the assay with rats [3] (CCI, doses 1, 5 and 25 μg compared, FIG. 7), the “dose giving maximal attenuation of the neuropathic manifestations” value amounted to 5 μg/rat. The “effect on neuropathic manifestations, CCI model” value in the assay on rats [3] (TAP 5 μg in 100 μl i.p., FIG. 5) is on record as “significant attenuation”. Besides, the “effect on mechanical hyperalgesia (PP test)” value in the assay with rats [4] (FIG. 4A) is recorded as “abolished”. Further, in the assay on rats [4] (FIG. 4B), the “effect on thermal hyperalgesia (TF test)” value is “abolished”.

For the origin of these results see patent US20050261194A1, “Use of thymulin-like peptides for making pain-relieving medicines” (priority 2001, published 2005).
